In ChEMBL document CHEMBL5360522, “Design, Synthesis, and Biological Evaluation of New 1H-Imidazole-2-Carboxylic Acid Derivatives as Metallo-β-Lactamase Inhibitors” (Bioorg Med Chem, 2022):

Legend:
[1] = Inhibition of Metallo-beta-lactamase IMP-1 (unknown origin) using FC5 as fluorescence substrate preincubated for 10 mins followed by substrate addition by microplate reader analysis
[2] = Inhibition of Metallo-beta-lactamase VIM-1 (unknown origin) using FC5 as fluorescence substrate preincubated for 10 mins followed by substrate addition by microplate reader analysis
[3] = Inhibition of N-terminal His-6 tagged VIM-2 (27 to 266 residues) (unknown origin) expressed in Escherichia coli Transetta (DE3) using FC5 as fluorescence substrate preincubated for 10 mins followed by substrate addition by microplate reader analysis; set-up: species or system Bacteria
[4] = target: Metallo-beta-lactamase type 2 (Bacteria, UniProt C7C422); assay: Inhibition of NDM-1 (1 to 270 residues) (unknown origin) expressed in Escherichia coli Transetta (DE3) using FC5 as fluorescence substrate preincubated for 10 mins followed by substrate addition by microplate reader analysis
Chain of Metallo-beta-lactamase type 2 (C7C422 whole entry, the tested form may be a part): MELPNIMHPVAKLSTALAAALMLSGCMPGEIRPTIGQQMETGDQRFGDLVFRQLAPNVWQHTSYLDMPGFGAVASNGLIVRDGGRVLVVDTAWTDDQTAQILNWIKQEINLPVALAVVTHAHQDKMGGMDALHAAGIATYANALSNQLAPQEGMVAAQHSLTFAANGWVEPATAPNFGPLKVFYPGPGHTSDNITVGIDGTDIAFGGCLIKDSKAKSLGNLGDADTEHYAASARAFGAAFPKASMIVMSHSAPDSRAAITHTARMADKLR

[5] = Inhibition of Metallo-beta-lactamase VIM-5 (unknown origin) using FC5 as fluorescence substrate preincubated for 10 mins followed by substrate addition by microplate reader analysis
Escherichia coli [6] = assay: Antibacterial activity against Escherichia coli C1541 expressing VIM-2 assessed as meropenem MIC at 10 ug/ml incubated for 16 to 18 hrs in presence of meropenem by two-fold serial dilution method; format: functional; conditions: dose 10 µg/ml, time 16-18 hrs
Escherichia coli [7] = assay: Antibacterial activity against Escherichia coli C1542 expressing VIM-2 assessed as meropenem MIC at 10 ug/ml incubated for 16 to 18 hrs in presence of meropenem by two-fold serial dilution method; format: functional; conditions: dose 10 µg/ml, time 16-18 hrs
Escherichia coli [8] = assay: Antibacterial activity against Escherichia coli C1541 expressing IMP-1 assessed as meropenem MIC at 10 ug/ml incubated for 16 to 18 hrs in presence of meropenem by two-fold serial dilution method; format: functional; conditions: dose 10 µg/ml, time 16-18 hrs

Row | SMILES | IC50 [1] | IC50 [2] | IC50 [3] | IC50 [4] | IC50 [5] | MIC (Escherichia coli [6]) | MIC (Escherichia coli [7]) | MIC (Escherichia coli [8])
1 | O=C(O)c1ncsc1Cc1ccccc1 | 7.8 µM | 6.31 µM | 2.06 µM | 43.7 µM | 4.37 µM |  |  | 
2 | COc1cccc(CCc2scnc2C(=O)O)c1 | 61.6 µM | 4.77 µM | 0.028 µM | 29.9 µM | 3.23 µM |  |  | 
3 | CC(Cn1ccnc1C(=O)O)c1ccccc1 (centres undefined) | 261 µM | 3.29 µM | 0.19 µM | 203 µM | 1.08 µM |  |  | 
4 | O=C(O)c1nccn1CCc1ccc(-c2ccccc2)cc1 | 21.4 µM | 2.37 µM | 0.06 µM | 25.4 µM | 0.18 µM | 0.5 µg/mL | ≤ 0.25 µg/mL | 8 µg/mL
5 | Nc1ccc(CCn2ccnc2C(=O)O)cc1 | 4.9 µM | 3.73 µM | 0.33 µM | > 100 µM | 0.45 µM |  |  | 
6 | CCC(c1ccccc1)n1ccnc1C(=O)O (centres undefined) | > 300 µM | 30.8 µM | 2.73 µM | > 300 µM | 2.59 µM |  |  | 
7 | O=C(O)c1nccn1CCc1ccc(-c2cccc3ccccc23)cc1 | ~67 µM | > 100 µM | 1.46 µM | ~200 µM | 0.089 µM |  |  | 
8 | O=C(O)c1nccn1Cc1ccccc1 | 32.1 µM | 4.14 µM | 0.48 µM | 63.5 µM | 1.55 µM | 16 µg/mL | 16 µg/mL | 8 µg/mL
9 | O=C(O)c1nccn1CCc1cccc2ccccc12 | 50.9 µM | 4.13 µM | 0.07 µM | 74.8 µM | 1.07 µM | ≤ 0.25 µg/mL | ≤ 0.25 µg/mL | 8 µg/mL
10 | O=C(O)c1ncsc1CCc1ccccc1F | 121 µM | 1.82 µM | 0.035 µM | > 100 µM | 1.17 µM |  |  | 
11 | O=C(O)c1ncsc1CCc1ccc(F)cc1 | 56.8 µM | 4.09 µM | 0.047 µM | > 100 µM | 0.41 µM |  |  | 
12 | O=C(O)c1nccn1CCc1ccc(Cl)cc1 | > 100 µM | 8.37 µM | 0.1 µM | > 100 µM | 0.44 µM |  |  | 
13 | O=C(O)c1nccn1CCc1ccc([N+](=O)[O-])cc1 | > 100 µM | 4.84 µM | 0.04 µM | > 100 µM | 0.15 µM | ≤ 0.25 µg/mL | ≤ 0.25 µg/mL | 8 µg/mL
14 | COc1ccc(CCn2ccnc2C(=O)O)cc1 | 4.48 µM | 33.7 µM | 0.35 µM | > 100 µM | 1.64 µM |  |  | 
15 | O=C(O)c1nccn1CCc1ccc2ccccc2c1 | 46.8 µM | 7.06 µM | 0.023 µM | > 100 µM | 0.14 µM | 0.5 µg/mL | ≤ 0.25 µg/mL | 8 µg/mL
16 | O=C(O)c1nccn1CCc1cccc(Cl)c1 | > 100 µM | 0.96 µM | 0.09 µM | > 100 µM | 108 µM |  |  | 
17 | O=C(O)c1nccn1CCc1ccccn1 | > 100 µM | 3.83 µM | 0.2 µM | 18.9 µM | 0.71 µM |  |  | 
18 | O=C(O)c1nccn1CCc1ccc(Br)cc1 | > 100 µM | 3.5 µM | 0.06 µM | > 100 µM | 0.1 µM |  |  | 
19 | O=C(O)c1nccn1CCNS(=O)(=O)c1ccccc1 | > 100 µM | > 100 µM | 5.95 µM | > 100 µM | 62.7 µM |  |  | 
20 | O=C(O)c1nc2ccccc2n1Cc1ccccc1 | > 100 µM | > 100 µM | > 300 µM | > 100 µM |  |  |  | 
21 | Cc1ncsc1CCn1ccnc1C(=O)O | > 100 µM | 31.6 µM | 0.2 µM | > 100 µM | 1.99 µM |  |  | 
22 | CC(c1ccccc1)n1ccnc1C(=O)O (centres undefined) | 4.12 µM | 8.18 µM | 0.76 µM | > 200 µM | 3.81 µM |  |  | 
23 | COc1ccc(CCn2ccnc2C(=O)O)cc1OC | 326 µM | 76.3 µM | 0.31 µM | > 100 µM | 15.1 µM |  |  | 
24 | O=C(O)c1ncn(Cc2ccccc2)n1 |  |  | > 100 µM | > 100 µM |  |  |  | 
25 | Cc1ccc(CCn2ccnc2C(=O)O)cc1 | > 100 µM | 15.7 µM | 0.48 µM | > 100 µM | 6.28 µM |  |  | 

Row | SMILES | IC50 [1] | IC50 [2] | IC50 [3] | IC50 [4] | IC50 [5] | MIC (Escherichia coli [6]) | MIC (Escherichia coli [7]) | MIC (Escherichia coli [8])
26 | O=C(O)c1nccn1CCOc1ccccc1 | > 100 µM | 14.4 µM | 5.49 µM | > 100 µM | 0.52 µM |  |  | 
27 | O=C(Cn1ccnc1C(=O)O)c1ccccc1 | > 100 µM | 5.02 µM | 0.63 µM | > 300 µM | 1.85 µM |  |  | 
28 | COc1cccc(CCn2ccnc2C(=O)O)c1 | 70.2 µM | 9.39 µM | 0.38 µM | > 100 µM | 10.7 µM |  |  | 
29 | O=C(O)c1ncoc1Cc1ccccc1 | > 100 µM | > 100 µM | 41.7 µM | > 100 µM | 11.8 µM |  |  | 
30 | O=C(O)c1nccn1CCc1ccc2c(c1)CCO2 | > 100 µM | 190 µM | 0.48 µM | > 100 µM | 96.2 µM |  |  | 
31 | O=C(O)c1nccn1CCc1ccc(-c2ccc3ccccc3c2)cc1 | 202 µM | 96.7 µM | 4.97 µM | > 100 µM | 0.22 µM |  |  | 
32 | O=C(O)c1nccn1CCc1ccc(-c2cccs2)cc1 | 64 µM | 3.98 µM | 0.018 µM | 126 µM | 0.018 µM | ≤ 0.25 µg/mL | ≤ 0.25 µg/mL | 8 µg/mL
33 | O=C(O)c1ncsc1CCc1ccc(Br)cc1 | > 100 µM | 8.37 µM | 0.1 µM | > 100 µM | 0.44 µM |  |  | 
34 | O=C(O)c1nccn1CCc1cccs1 | 7.97 µM | 1.07 µM | 0.12 µM | > 100 µM | 0.64 µM |  |  | 
35 | O=C(O)c1nccn1CCc1ccc(F)cc1 | > 100 µM | 3.11 µM | 0.14 µM | > 100 µM | 1.93 µM |  |  | 
36 | O=C(O)c1ncnn1Cc1ccccc1 |  |  | > 100 µM | > 100 µM |  |  |  | 
37 | O=C(O)c1nccn1CCS(=O)(=O)c1ccccc1 | > 100 µM | 112 µM | 2.87 µM | > 100 µM | 4.42 µM |  |  | 
38 | O=C(O)c1ncsc1CCc1cccc(Br)c1 | > 100 µM | 1.64 µM | 0.024 µM | > 100 µM | 1.45 µM |  |  | 
39 | O=C(O)c1ncsc1CCc1ccccc1 | 2.92 µM | 0.42 µM | 0.22 µM | 82.4 µM | 0.43 µM |  |  | 
40 | O=C(O)c1nccn1CCc1ccccc1 | 483 µM | 2.32 µM | 0.11 µM | 301 µM | 1.59 µM |  |  | 
41 | O=C(O)c1nccn1CCCc1ccccc1 | 10.8 µM | 0.63 µM | 0.63 µM | > 100 µM | 0.83 µM |  |  | 
42 | O=C(O)c1nccn1Cc1ccncc1 | > 300 µM | 29.5 µM | 0.56 µM | > 300 µM | 5.78 µM | ≤ 0.25 µg/mL | ≤ 0.25 µg/mL | 8 µg/mL
43 | O=C(O)c1nccn1CCc1ccc(-c2ccncc2)cc1 | 10.2 µM | 2.17 µM | 0.11 µM | 54.6 µM | 0.17 µM |  |  | 
44 | O=C(O)c1nncn1Cc1ccccc1 |  |  | > 100 µM | > 100 µM |  |  |  | 
45 | Cc1c(C(=O)O)ncn1Cc1ccccc1 | > 100 µM | > 100 µM | > 100 µM | > 100 µM | > 100 µM |  |  | 
46 | O=C(O)c1ncsc1CCc1ccc(C(F)(F)F)cc1 | 87.8 µM | 14.5 µM | 0.21 µM | > 100 µM | 1.55 µM |  |  | 
47 | O=C(O)c1nccn1C(C(=O)O)c1ccccc1 (centres undefined) | 1.59 µM | > 300 µM | 7.48 µM | > 300 µM | 9.24 µM | 16 µg/mL | 16 µg/mL | 8 µg/mL
48 | O=C(O)c1ncsc1CCc1cccc(C(F)(F)F)c1 | 112 µM | 2.08 µM | 0.56 µM | > 100 µM | 2.69 µM |  |  | 
49 | O=C(O)c1ncsc1CCc1ccc(C(c2ccccc2)(c2ccccc2)c2ccccc2)cc1 | 46.8 µM | 9.56 µM | 0.23 µM | > 100 µM | 0.65 µM |  |  | 
50 | O=C(O)c1nccn1CCc1cccc(F)c1 | 441 µM | 3.67 µM | 0.11 µM | > 100 µM | 0.66 µM |  |  | 
